Reference: US20240200003A1, “DEVICES AND METHODS FOR IN VITRO MODELING OF METASTATIC CANCER” (XYLYX BIO, INC., priority 2020, published 2024)
“And” between values parts separate entries of the source, which are not always exact repeats. Identical values can stand only once. Like-named read-outs stand apart in the source and are kept apart here. Blank lines part the entries; values can stand above or below the compound they belong to.

Legend:
[1] = Diffusion assay through lung ECM hydrogel; assay type: physicochemical
Source text: The difference in IC50 values of the three drugs in this study are attributable to the different cellular mechanism that each drug targets as well as expression of and access to each target. Erlotinib is an inhibitor of epidermal growth factor receptor (EGFR) tyrosine kinase, whereas Etoposide inhibits DNA topoisomerase II, which prevents DNA ligation and ultimately causes DNA strands to break. KPT-185 induces apoptosis as a selective inhibitor of nuclear export (SINE) compound. […] Another important consideration for drug testing in 3D culture systems is drug permeability through the ECM and cell membrane.

[2] = test system: Human lung adenocarcinoma A549 cells; assay: XTT cell viability / IC50 of anti-cancer drugs, A549 cells in 3D lung tumor model; assay type: cell-based; conditions: for IC50: 72 h drug
Description: (§1) Cell Expansion. […] Forming 3D Lung Tumor Model. […] Drug Treatment. […] After 72 hours, cell viability was assayed. […] Cell Proliferation Assay. […] Data Analysis.

[3] = test system: Human lung adenocarcinoma Jacket cells; assay: XTT cell viability / IC50 of anti-cancer drugs, Jacket cells in 3D lung tumor model; assay type: cell-based; conditions: for growth inhibition (cell viability): Jacket cells, doses 0.1-10 μM, 3D TissueSpec® Lung ECM Hydrogel and 2D plastic
Description: as §1

[4] = test system: MCF-7 and MB-231 breast cancer cells; conditions: previous studies; cited from earlier work
[5] = clinical trials; cited from earlier work
[6] = test system: breast cancer cells T47-D; assay: Viability assay of breast cancer cells embedded in TissueSpec ECM hydrogels; assay type: cell-based, human; parameters: dose or concentration left out as unconfirmed; conditions: 72 hours, Bone, Liver, Lung ECM Hydrogels, Matrigel, plastic
[7] = Homo sapiens, A549, 72 h, A549 cells in Matrigel®
[8] = Homo sapiens, A549, 72 h, A549 cells in TissueSpec® Lung ECM Hydrogel (3D)
[9] = Homo sapiens, A549, 72 h, A549 cells on Plastic (no ECM), 2D
[10] = Homo sapiens, 72 h, Jacket cells in Matrigel®, 72 h drug, read-out: IC50
[11] = Homo sapiens, 72 h, Jacket cells in TissueSpec® Lung ECM Hydrogel (3D), 72 h drug, read-out: IC50
[12] = Homo sapiens, 72 h, Jacket cells on Plastic (no ECM), 2D, 72 h drug, read-out: IC50
[13] = Jacket cells in TissueSpec® Lung ECM Hydrogel, reproducibility, two rounds, read-out: IC50 in two separate rounds of testing

SMILES: CC1=CC(C)(C)N(C)c2cc3[o+]c4cc5c(cc4c(-c4cc(NC(=O)c6ccc(CCl)cc6)ccc4C(=O)[O-])c3cc21)C(C)=CC(C)(C)N5C.CC1=CC(C)(C)N(C)c2cc3[o+]c4cc5c(cc4c(-c4ccc(NC(=O)c6ccc(CCl)cc6)cc4C(=O)[O-])c3cc21)C(C)=CC(C)(C)N5C [CellTracker Red CMTPX]
diffusion speed through TissueSpec® Lung ECM Hydrogel [1]: ≥ 1.3 mm/h

SMILES: COc1cccc2c1C(=O)c1c(O)c3c(c(O)c1C2=O)C[C@@](O)(C(=O)CO)C[C@@H]3O[C@H]1C[C@H](N)[C@H](O)[C@H](C)O1 [doxorubicin]
resistance when cultured in Matrigel® [4]: more resistant to doxorubicin when cultured in Matrigel®

SMILES: CNC(=O)c1cc(Oc2ccc(NC(=O)Nc3ccc(Cl)c(C(F)(F)F)c3)cc2)ccn1 [sorafenib]
HCC patient plasma concentration [5]: 2 mg/L and 4 μM

SMILES: CC/C(=C(\c1ccccc1)c1ccc(OCCN(C)C)cc1)c1ccccc1 [tamoxifen, Tamoxifen]
differential viability response by substrate [6]: cells embedded in lung and bone ECM are more resistant than cells embedded in liver, matrigel or plastic

Further lines, with some results ahead:

IC50 [2, 7]: 57.5 µM
IC50 [2, 8]: 134 µM
IC50 [2, 9]: 36.4 µM
IC50 [3, 10]: 8.7 µM
IC50 [3, 11]: 7.5 µM
IC50 [3, 12]: 5.2 µM
SMILES: C#Cc1cccc(Nc2ncnc3cc(OCCOC)c(OCCOC)cc23)c1 [Erlotinib]
growth inhibition (cell viability) ([2]; A549 cells, doses 0.1-10 μM, 3D TissueSpec® Lung ECM Hydrogel and plastic): dose-dependent growth inhibition

IC50 [2, 7]: 35.5 µM
IC50 [2, 8]: 16.6 µM
IC50 [2, 9]: 40.3 µM
IC50 [3, 10]: 15.8 µM
IC50 [3, 11]: 3.7 µM
IC50 [3, 12]: 4.4 µM
IC50 ([3]; Homo sapiens, Jacket cells in TissueSpec® Lung ECM Hydrogel, reproducibility, two rounds, read-out: IC50 in two separate rounds of testing): 3.8 µM
IC50 ([3]; Jacket cells in Matrigel®, reproducibility, two rounds, read-out: IC50 in two separate rounds of testing): 0.7 µM
IC50 [3, 13]: 4 µM
SMILES: COc1cc([C@@H]2c3cc4c(cc3[C@@H](O[C@@H]3O[C@@H]5CO[C@@H](C)O[C@H]5[C@H](O)[C@H]3O)[C@H]3COC(=O)[C@H]23)OCO4)cc(OC)c1O [Etoposide]
growth inhibition (cell viability) [3]: dose-dependent growth inhibition

IC50 ([2]; A549 cells in Matrigel®): 4.2 µM
IC50 ([2]; A549 cells in TissueSpec® Lung ECM Hydrogel (3D)): 2.3 µM
IC50 ([2]; A549 cells on Plastic (no ECM), 2D): 8.8 µM
IC50 ([3]; Jacket cells in Matrigel®, 72 h drug, read-out: IC50): 4.3 µM
IC50 ([3]; Jacket cells in TissueSpec® Lung ECM Hydrogel (3D), 72 h drug, read-out: IC50): 0.4 µM
IC50 [3, 13]: 0.4 µM
IC50 ([3]; Jacket cells on Plastic (no ECM), 2D, 72 h drug, read-out: IC50): 0.2 µM
SMILES: COc1cc(-c2ncn(/C=C\C(=O)OC(C)C)n2)cc(C(F)(F)F)c1 [KPT-185]
growth inhibition (cell viability) [3]: dose-dependent growth inhibition
